# According to the supplement of paper PMC10307832:
# Assays:
# Experiment in all cases: relative viability (nuclei count vs DMSO), 5 days (fraction); higher = more cells survive
# [1] = compound: C1=CC2=C(C=C(C(=C2N=C1)O)N=NC3=CC4=C(C=C3)C=C(C=C4)S(=O)(=O)O)S(=O)(=O)O + COc1cccc2cc(-c3nc([C@H]4CC[C@H](C(=O)O)CC4)n4ncnc(N)c34)[nH]c12 [OSI-027] (partner 0.5 µM)
# Method in brief: (§1)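 Lung cancer cell lines in 1536-well plates got either a single drug or a fixed anchor-drug dose together with five library-drug doses (not always all listed) in √10 steps, by pin tool, on the day after seeding. Nuclei were counted after 5 days, and relative viability is the treated-to-vehicle ratio of nuclei counts. Values are medians of duplicate plates.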
# [2] = compound: C1=CC2=C(C=C(C(=C2N=C1)O)N=NC3=CC4=C(C=C3)C=C(C=C4)S(=O)(=O)O)S(=O)(=O)O + O=C(CCCCCCC(=O)Nc1ccccc1)NO [Vorinostat] (partner 1 µM)
# Method in brief: as §1
# AT-7519 + Navitoclax = compound: O=C(NC1CCNCC1)c1n[nH]cc1NC(=O)c1c(Cl)cccc1Cl [AT-7519] + CC1(C)CCC(c2ccc(Cl)cc2)=C(CN2CCN(c3ccc(C(=O)NS(=O)(=O)c4ccc(N[C@H](CCN5CCOCC5)CSc5ccccc5)c(S(=O)(=O)C(F)(F)F)c4)cc3)CC2)C1 [Navitoclax] (partner 0.5 µM)
# Method in brief: as §1
# AT-7519 + Linsitinib = compound: O=C(NC1CCNCC1)c1n[nH]cc1NC(=O)c1c(Cl)cccc1Cl [AT-7519] + C[C@]1(O)C[C@@H](c2nc(-c3ccc4ccc(-c5ccccc5)nc4c3)c3c(N)nccn32)C1 [Linsitinib] (partner 1 µM)
# Method in brief: as §1
Cell Line,relative viability ([1]; first compound 0.08 µM),relative viability ([1]; first compound 0.253 µM),relative viability ([1]; first compound 0.8 µM),relative viability ([1]; first compound 2.53 µM),relative viability ([1]; first compound 8 µM),relative viability ([2]; first compound 0.08 µM),relative viability ([2]; first compound 0.253 µM),relative viability ([2]; first compound 0.8 µM),relative viability ([2]; first compound 2.53 µM),relative viability ([2]; first compound 8 µM),relative viability (AT-7519 + Navitoclax; first compound 0.01 µM),relative viability (AT-7519 + Navitoclax; first compound 0.03162 µM),relative viability (AT-7519 + Navitoclax; first compound 0.3162 µM),relative viability (AT-7519 + Navitoclax; first compound 1 µM),relative viability (AT-7519 + Linsitinib; first compound 0.01 µM),relative viability (AT-7519 + Linsitinib; first compound 0.03162 µM),relative viability (AT-7519 + Linsitinib; first compound 0.3162 µM),relative viability (AT-7519 + Linsitinib; first compound 1 µM)
201T,0.804,0.687,0.684,0.761,0.735,0.997,1.04,0.961,1.08,0.942,1.19,1.17,1.27,1.25,0.933,1.04,1.06,1.05
A549,–,–,–,–,–,–,–,–,–,–,1.18,1.25,1.15,0.837,0.658,0.552,0.629,0.39
A-427,0.402,0.447,0.45,0.41,0.5,0.894,0.821,0.796,0.861,0.924,0.973,0.899,1.01,0.599,1.13,1.12,1.13,0.81
ABC-1,0.435,0.336,0.463,0.499,0.64,0.875,1.12,0.943,1.49,0.982,–,–,–,–,0.784,0.715,0.788,0.243
BEN,0.289,0.303,0.244,0.297,0.292,0.562,0.695,0.526,0.599,0.589,0.0644,0.0591,0.069,0.0528,0.887,0.894,0.864,0.785
CAL-12T,0.592,0.585,0.577,0.819,0.831,0.916,0.571,0.668,0.752,0.725,1.21,1.05,0.855,0.128,0.755,0.752,0.69,0.314
COR-L23,0.884,0.781,0.725,0.612,0.802,0.484,0.396,0.418,0.449,0.599,1.24,1.15,0.774,0.138,0.82,0.776,0.481,0.137
COR-L 105,0.657,0.576,0.788,0.635,0.722,0.852,0.86,0.742,0.866,0.881,0.766,0.721,0.644,0.347,0.962,0.907,0.867,0.516
Calu-6,–,–,–,–,–,–,–,–,–,–,1.09,0.89,0.901,0.115,1.05,0.942,1.07,0.772
ChaGo-K-1,0.641,0.555,0.519,0.556,0.382,0.827,0.812,0.698,0.723,0.494,0.971,1.39,0.726,0.982,–,–,–,–
EBC-1,–,–,–,–,–,–,–,–,–,–,0.368,0.347,0.329,0.159,0.935,1.01,0.938,0.934
EKVX,0.691,0.682,0.684,0.721,0.539,0.757,0.694,0.643,0.76,0.656,0.772,0.881,0.923,0.876,0.963,0.949,0.928,0.959
EMC-BAC-2,0.408,0.397,0.386,0.363,0.343,0.377,0.458,0.467,0.441,0.45,0.89,1.02,1.05,1.18,0.823,0.816,0.778,0.77
EPLC-272H,0.298,0.258,0.258,0.283,0.294,0.453,0.358,0.306,0.876,0.491,1.13,1.01,1.31,0.972,0.999,1.1,0.945,1.18
H3255,0.544,0.633,0.595,0.567,0.655,0.84,0.828,0.803,0.846,0.754,0.463,0.491,0.647,0.431,0.964,0.888,0.909,0.788
HARA,0.633,0.524,0.513,0.522,0.48,0.631,0.383,0.565,0.493,0.551,1.07,1.12,1.12,0.97,1.15,0.92,0.945,0.671
HCC-15,0.75,0.675,0.627,0.63,0.65,0.818,0.857,0.779,0.826,0.827,0.632,0.639,0.647,0.351,0.961,0.879,0.724,0.43
HCC-44,–,0.651,0.5,0.55,0.601,1.22,1.08,1.08,1.11,0.995,1.01,0.86,0.997,0.958,0.677,0.62,0.678,0.543
HCC-78,0.436,0.368,0.417,0.346,0.348,0.437,0.471,0.458,0.437,0.434,0.743,0.664,0.901,0.685,0.52,0.452,0.567,0.374
HCC-366,0.989,0.932,0.89,0.861,0.948,0.442,0.463,0.392,0.338,0.328,1.07,1.16,1.07,0.672,0.639,0.522,0.429,0.185
HCC-827,0.804,0.764,0.754,0.798,0.843,0.926,0.813,0.826,0.876,0.785,0.991,1.1,0.996,0.995,0.959,0.973,0.946,0.899
HOP-62,0.843,0.817,0.67,0.807,0.836,0.438,0.693,0.602,0.619,0.6,0.824,0.983,1.01,0.923,0.93,0.859,0.682,1.05

Cell Line,relative viability ([1]; first compound 0.08 µM),relative viability ([1]; first compound 0.253 µM),relative viability ([1]; first compound 0.8 µM),relative viability ([1]; first compound 2.53 µM),relative viability ([1]; first compound 8 µM),relative viability ([2]; first compound 0.08 µM),relative viability ([2]; first compound 0.253 µM),relative viability ([2]; first compound 0.8 µM),relative viability ([2]; first compound 2.53 µM),relative viability ([2]; first compound 8 µM),relative viability (AT-7519 + Navitoclax; first compound 0.01 µM),relative viability (AT-7519 + Navitoclax; first compound 0.03162 µM),relative viability (AT-7519 + Navitoclax; first compound 0.3162 µM),relative viability (AT-7519 + Navitoclax; first compound 1 µM),relative viability (AT-7519 + Linsitinib; first compound 0.01 µM),relative viability (AT-7519 + Linsitinib; first compound 0.03162 µM),relative viability (AT-7519 + Linsitinib; first compound 0.3162 µM),relative viability (AT-7519 + Linsitinib; first compound 1 µM)
IA-LM,–,–,–,–,–,1.09,0.95,0.97,1.04,0.935,0.917,0.865,0.69,0.435,0.765,0.491,0.442,0.548
LC-2-ad,0.936,0.855,0.626,0.906,0.723,0.702,0.744,0.729,0.699,0.725,0.312,0.487,0.367,0.214,0.754,0.832,0.908,0.464
LCLC-97TM1,0.535,0.432,0.496,0.474,0.515,0.593,0.657,0.632,0.575,0.715,0.637,0.31,0.461,0.398,0.189,0.155,0.17,0.151
LCLC-103H,0.475,0.485,0.444,0.463,0.517,0.797,0.784,0.827,0.785,0.859,–,–,–,–,0.955,1.04,1.1,1.13
LK-2,0.21,0.202,0.189,0.211,0.202,0.308,0.333,0.292,0.263,0.178,0.76,0.75,0.77,0.745,0.514,0.448,0.368,0.255
LOU-NH91,0.736,0.751,0.713,0.668,0.733,1,0.89,0.903,0.865,0.639,0.668,0.629,0.693,0.525,0.984,0.894,0.916,0.776
LU99A,0.311,0.301,0.35,0.292,0.296,0.534,0.445,0.63,0.494,0.53,0.846,0.782,0.745,0.382,0.514,0.577,0.54,0.404
NCI-H358,0.94,0.738,0.746,0.772,0.847,0.676,0.711,0.628,0.748,0.701,–,–,–,–,0.733,0.592,0.347,0.157
NCI-H522,0.683,0.623,0.565,0.724,0.592,0.98,1.01,0.943,0.999,0.977,–,–,–,–,–,–,–,–
NCI-H650,0.546,0.511,0.499,0.494,0.293,0.435,0.472,0.416,0.413,0.175,–,–,–,–,0.854,0.791,1.04,0.693
NCI-H661,0.789,0.736,0.703,0.683,0.687,0.765,0.756,0.783,0.785,0.796,–,–,–,–,0.46,0.513,0.538,0.343
NCI-H1299,–,–,–,–,–,–,–,–,–,–,1.12,1.02,1.08,1.24,1.1,0.96,0.946,0.645
NCI-H1563,0.786,0.732,0.818,0.77,0.727,–,–,–,–,–,–,–,–,–,1.2,1.25,1.25,1
NCI-H1623,0.466,0.391,0.419,0.468,0.438,–,–,–,–,–,–,–,–,–,–,–,–,–
NCI-H1648,0.259,0.251,0.263,0.253,0.185,–,0.825,–,–,0.479,–,–,–,–,–,–,–,–
NCI-H1650,0.718,0.542,0.667,0.651,0.65,0.577,0.447,0.594,0.633,0.373,1.32,1.21,1.2,0.291,–,–,–,–
NCI-H1703,–,–,–,–,–,–,–,–,–,–,0.956,1.01,1.01,0.225,0.854,0.835,0.379,0.149
NCI-H1792,0.866,0.669,0.726,0.689,0.629,–,–,–,–,–,0.406,0.552,0.642,0.752,0.291,0.358,0.441,0.444
NCI-H2170,0.958,0.676,0.666,0.756,0.689,0.975,0.811,0.862,0.914,0.784,0.566,0.497,0.61,0.45,–,–,–,–
NCI-H2342,0.529,0.657,0.603,0.563,0.674,0.834,0.709,0.72,0.695,0.688,–,–,–,–,–,–,–,–
SW 900,0.55,0.554,0.608,0.517,0.424,0.624,0.399,0.604,0.611,0.426,–,–,–,–,–,–,–,–
